For the experiment, the target named is T1, […]F508-CFTR (Homo sapiens, UniProt P13569, DEL508-508).
T1 construct: expressed in transfected cells
The experiment is described as follows: Assay results of Table 3: ΔF508-CFTR modulation, membrane potential optical assay (assay format not stated). In kind it is cell-based. As to conditions: NIH3T3 mouse fibroblasts stably expressing […]F508-CFTR (optical assays); for Efficacy: efficacy range; for EC50: potency range. In short, it runs like this:
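NIH3T3 mouse fibroblasts stably expressing ΔF508-CFTR; FRET membrane-potential dyes (CC2-DMPE/DiSBAC2(3)) read on VIPR II. Correctors: 16 h at 37° C. with compound, then 10 μM forskolin + 20 μM genistein in Cl⁻-free medium. Potentiators: cells at 27° C. 24 h, compound then 2-10 μM forskolin; EC50 and efficacy derived.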

Each structure is given as a SMILES string. Bounds are passed on as bounds.

T1 sequence (P13569 with tags, fused parts or gaps DEL508-508): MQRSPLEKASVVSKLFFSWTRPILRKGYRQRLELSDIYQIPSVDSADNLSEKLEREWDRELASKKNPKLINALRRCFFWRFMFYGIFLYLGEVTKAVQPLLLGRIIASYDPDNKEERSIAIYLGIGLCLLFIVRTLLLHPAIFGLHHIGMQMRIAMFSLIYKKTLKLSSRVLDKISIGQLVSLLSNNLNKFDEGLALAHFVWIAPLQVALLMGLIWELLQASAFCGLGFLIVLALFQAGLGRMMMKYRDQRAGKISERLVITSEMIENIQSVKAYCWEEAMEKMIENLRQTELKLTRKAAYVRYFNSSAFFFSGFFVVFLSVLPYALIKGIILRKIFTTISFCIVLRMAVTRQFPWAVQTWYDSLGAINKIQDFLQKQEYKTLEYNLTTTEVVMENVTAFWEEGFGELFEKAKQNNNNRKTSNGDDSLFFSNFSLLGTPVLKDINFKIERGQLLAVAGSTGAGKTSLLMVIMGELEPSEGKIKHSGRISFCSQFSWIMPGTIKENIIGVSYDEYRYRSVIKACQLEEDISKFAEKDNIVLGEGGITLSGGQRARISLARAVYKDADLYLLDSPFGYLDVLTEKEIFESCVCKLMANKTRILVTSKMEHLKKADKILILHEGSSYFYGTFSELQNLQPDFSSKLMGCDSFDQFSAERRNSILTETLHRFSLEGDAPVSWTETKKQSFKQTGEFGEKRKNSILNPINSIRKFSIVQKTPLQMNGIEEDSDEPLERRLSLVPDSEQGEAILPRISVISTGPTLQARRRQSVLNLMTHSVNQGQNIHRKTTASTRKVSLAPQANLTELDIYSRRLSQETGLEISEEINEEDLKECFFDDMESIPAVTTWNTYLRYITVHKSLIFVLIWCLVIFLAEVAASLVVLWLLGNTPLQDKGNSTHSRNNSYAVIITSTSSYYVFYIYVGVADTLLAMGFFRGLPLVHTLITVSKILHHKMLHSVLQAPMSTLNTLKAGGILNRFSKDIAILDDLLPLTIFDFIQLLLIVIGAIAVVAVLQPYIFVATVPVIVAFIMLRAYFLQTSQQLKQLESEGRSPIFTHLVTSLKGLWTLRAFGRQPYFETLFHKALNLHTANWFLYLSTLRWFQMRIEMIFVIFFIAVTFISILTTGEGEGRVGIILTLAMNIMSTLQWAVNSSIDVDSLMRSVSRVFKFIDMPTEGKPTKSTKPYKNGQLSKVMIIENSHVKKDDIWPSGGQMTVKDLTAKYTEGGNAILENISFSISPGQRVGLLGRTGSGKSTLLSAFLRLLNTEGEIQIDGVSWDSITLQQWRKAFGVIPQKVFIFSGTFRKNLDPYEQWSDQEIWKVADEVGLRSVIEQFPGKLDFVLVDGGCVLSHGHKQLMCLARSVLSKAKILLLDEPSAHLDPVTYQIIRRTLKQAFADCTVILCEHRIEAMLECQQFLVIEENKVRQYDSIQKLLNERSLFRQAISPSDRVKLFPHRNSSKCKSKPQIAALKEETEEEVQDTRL

As usually defined, the EC50 is the concentration needed to bring the measured effect to its halfway point. Take `NC(=O)c1cc(-c2ccccc2)nc(N2CCc3ccccc3C2)n1` [Compound 54]: the Efficacy result is “++ (++ corresponds to Efficacy between 100 and 50)”; the EC50 lay in the range of 1 to 5 µM.

For `CCN(CC)c1nc(C(N)=O)cc(-c2ccccc2)n1` [Compound 119], the Efficacy result is “+++ (+++ corresponds to Efficacy greater than 100)” and the EC50 was less than 1 µM.

Take `NC(=O)c1cc(-c2ccccc2)nc(N2CCC(O)(Cc3ccccc3)CC2)n1` [Compound 143]: the Efficacy entry is recorded as “+ (+ corresponds to Efficacy less than 50)” and the EC50 was more than 5 µM.

In the case of `COc1cccc(-c2cc(C(N)=O)nc(N(C)C)n2)c1` [Compound 77], the Efficacy result is reported as “+ (+ corresponds to Efficacy less than 50)” and the EC50 is more than 5 µM.

As for `CCCCN(CC#N)c1nc(C(N)=O)cc(-c2ccccc2)n1` [Compound 13], the Efficacy entry was “++ (++ corresponds to Efficacy between 100 and 50)”; the EC50 was more than 5 µM.

With `NC(=O)c1cc(-c2ccc(OC(F)(F)F)cc2)nc(N2CCCCC2)n1` [Compound 182], the Efficacy result is listed as “+ (+ corresponds to Efficacy less than 50)” and the EC50 is 1 to 5 µM.

On to `COc1ccc(-c2cc(C(N)=O)nc(N3CCCCC3)n2)c(OC)c1` [Compound 65], for which the Efficacy entry was “++ (++ corresponds to Efficacy between 100 and 50)”; the EC50 is more than 5 µM.

As for `Cc1ccc(-c2cc(C(N)=O)nc(N3CCCCC3)n2)cc1C` [Compound 40], the Efficacy entry was “++ (++ corresponds to Efficacy between 100 and 50)”; the EC50 is more than 5 µM.

`CCN(CC)c1nc(C(=O)NC)cc(-c2ccccc2)n1` [Compound 47]: the Efficacy result was “+++ (+++ corresponds to Efficacy greater than 100)” and the EC50 was in the range of 1 to 5 µM.

As for `CN(C)C(=O)c1cc(-c2ccccc2)nc(NCc2ccco2)n1` [Compound 128], the Efficacy result is on record as “+ (+ corresponds to Efficacy less than 50)” and the EC50 is more than 5 µM.

For the molecule `COc1ccc(-c2cc(C(N)=O)nc(N3CCCCC3)n2)cn1` [Compound 22], the Efficacy result was “++ (++ corresponds to Efficacy between 100 and 50)”; the EC50 is more than 5 µM.

`COc1ccccc1-c1cc(C(N)=O)nc(NCC2CCCO2)n1` (centres unmarked) [Compound 193]: the Efficacy result is “+++ (+++ corresponds to Efficacy greater than 100)” and the EC50 is 1 to 5 µM.

`CCN(CC)C(=O)C1CCCN(c2nc(C(N)=O)cc(-c3ccccc3)n2)C1` (centres unmarked) [Compound 177]: the Efficacy entry was “++ (++ corresponds to Efficacy between 100 and 50)”; the EC50 was more than 5 µM.

Consider `CCN(CC)c1nc(C(N)=O)cc(-c2cc(C(C)C)ccc2OC)n1` [Compound 76], for which the Efficacy entry is “+++ (+++ corresponds to Efficacy greater than 100)” and the concentration giving a half-maximal response (EC50) was less than 1 µM.

For `NC(=O)c1cc(-c2ccccc2)nc(N2CCC2)n1` [Compound 183], the Efficacy result is “++ (++ corresponds to Efficacy between 100 and 50)”; the EC50 was more than 5 µM.

In the case of `CCCNc1nc(C(N)=O)cc(-c2ccccc2)n1` [Compound 30], the Efficacy entry was “++ (++ corresponds to Efficacy between 100 and 50)”; the EC50 was more than 5 µM.

Turning to `NC(=O)c1cc(-c2cc(Cl)ccc2Cl)nc(N2CCCCC2)n1` [Compound 202], the Efficacy entry is “++ (++ corresponds to Efficacy between 100 and 50)”; the EC50 lay within 1 to 5 µM.

As for `NC(=O)c1cc(-c2ccc(Cl)cc2Cl)nc(N2CCCCC2)n1` [Compound 106], the Efficacy result was “+++ (+++ corresponds to Efficacy greater than 100)” and the EC50 is 1 to 5 µM.

For the molecule `CCN(CC)c1nc(C(N)=O)cc(-c2ccc(Cl)cc2)n1` [Compound 147], the Efficacy result was “++ (++ corresponds to Efficacy between 100 and 50)”; the EC50 was less than 1 µM.

Consider `CCc1ccc(-c2cc(C(N)=O)nc(N(CC)CC)n2)cc1` [Compound 116], for which the Efficacy result is reported as “+++ (+++ corresponds to Efficacy greater than 100)” and the EC50 was in the range of 1 to 5 µM.

For the molecule `CCN(CC)c1nc(C(N)=O)cc(-c2ccc(OC(F)(F)F)cc2)n1` [Compound 29], the Efficacy entry is “++ (++ corresponds to Efficacy between 100 and 50)”; the EC50 is less than 1 µM.

Consider `COc1ccc(-c2cc(C(N)=O)nc(N3CCCCCC3)n2)cc1` [Compound 78], for which the Efficacy result is “++ (++ corresponds to Efficacy between 100 and 50)”; the concentration for a half-maximal effect (EC50) was in the range of 1 to 5 µM.

`CCN(CC)c1nc(C(N)=O)cc(-c2ccc(OC)nc2)n1` [Compound 229]: the Efficacy entry was “++ (++ corresponds to Efficacy between 100 and 50)”; the EC50 fell in the range of 1 to 5 µM.

Turning to `CNc1nc(C(N)=O)cc(-c2cccc(OC)c2)n1` [Compound 231], the Efficacy entry is “++ (++ corresponds to Efficacy between 100 and 50)”; the EC50 is more than 5 µM.

Consider `COc1cccc(-c2cc(C(N)=O)nc(NCC3CC3)n2)c1` [Compound 203], for which the Efficacy result is given as “+++ (+++ corresponds to Efficacy greater than 100)” and the EC50 was more than 5 µM.

With `Cc1csc(-c2cc(C(N)=O)nc(N3CCCCC3)n2)c1` [Compound 70], the Efficacy entry is “+ (+ corresponds to Efficacy less than 50)” and the EC50 lay in the range of 1 to 5 µM.

With `COCCCNc1nc(C(N)=O)cc(-c2cccc(OC)c2)n1` [Compound 88], the Efficacy result was “+ (+ corresponds to Efficacy less than 50)” and the EC50 is more than 5 µM.

For the molecule `COc1ccc(-c2cc(C(N)=O)nc(N3CC=CCC3)n2)cc1` [Compound 129], the Efficacy entry is “++ (++ corresponds to Efficacy between 100 and 50)”; the EC50 was more than 5 µM.

With `CCCN(CC1CC1)c1nc(C(=O)N(C)C)cc(-c2ccccc2)n1` [Compound 150], the Efficacy entry is “++ (++ corresponds to Efficacy between 100 and 50)”; the EC50 lay within 1 to 5 µM.

For the molecule `C=CCNc1nc(C(N)=O)cc(-c2ccc(OC)cc2)n1` [Compound 220], the Efficacy result is “+ (+ corresponds to Efficacy less than 50)” and the EC50 is more than 5 µM.

Turning to `CCOC(=O)C1CCN(c2nc(C(N)=O)cc(-c3ccccc3)n2)CC1` [Compound 99], the Efficacy result is listed as “+ (+ corresponds to Efficacy less than 50)” and the EC50 was 1 to 5 µM.

Regarding `NC(=O)c1cc(-c2ccc3c(c2)OCO3)nc(N2CCCCC2)n1` [Compound 227], the Efficacy entry was “++ (++ corresponds to Efficacy between 100 and 50)”; the EC50 is more than 5 µM.

As to `CN(CCc1ccccc1)c1nc(C(N)=O)cc(-c2ccccc2)n1` [Compound 38], the Efficacy entry is listed as “+++ (+++ corresponds to Efficacy greater than 100)” and the EC50 lay within 1 to 5 µM.

In the case of `CCCCN(CC)c1nc(C(N)=O)cc(-c2ccccc2)n1` [Compound 121], the Efficacy result is “+++ (+++ corresponds to Efficacy greater than 100)” and the EC50 fell in the range of 1 to 5 µM.

Consider `COc1cccc(-c2cc(C(N)=O)nc(N3CCCCC3)n2)c1` [Compound 168], for which the Efficacy entry is “+++ (+++ corresponds to Efficacy greater than 100)” and the EC50 is more than 5 µM.

In the case of `CC(C)CNc1nc(C(N)=O)cc(-c2ccccc2)n1` [Compound 51], the Efficacy entry is “++ (++ corresponds to Efficacy between 100 and 50)”; the EC50 was more than 5 µM.

As for `CCCC1CCN(c2nc(C(N)=O)cc(-c3ccccc3)n2)CC1` [Compound 73], the Efficacy entry is reported as “+ (+ corresponds to Efficacy less than 50)” and the EC50 is 1 to 5 µM.

The values above are taken from patent publication US8822451B2, “Modulators of ATP-binding cassette transporters” (Vertex Pharmaceuticals Incorporated, priority 2005, dated 2014).
